Literature values as cited in publication PMC4448982, “LP-925219 maximizes urinary glucose excretion in mice by inhibiting both renal SGLT1 and SGLT2” (Pharmacology Research & Perspectives, 2015).
Like-named read-outs stand apart in the source and are kept apart here.

Assays:
[1] = design: method as in Powell et al. [2014]; settings: mouse; ref Powell et al. [2014]; cited from earlier work
[2] = design: method as in Powell et al. [2014]; settings: human; ref Powell et al. [2014]; cited from earlier work
SGLT2 = test system: SGLT2; design: method as in Rieg et al. [2014]; settings: ref Rieg et al. [2014], cited from earlier work

Row | Compound | plasma protein binding [1] [%] | plasma protein binding [2] [%] | reduction of glucose reabsorption (SGLT2; SGLT1 KO mice) [%] | reduction of glucose reabsorption (SGLT2; WT mice) [%]
1 | CCOc1ccc(Cc2cc([C@@H]3O[C@H](SC)[C@@H](O)[C@H](O)[C@H]3O)ccc2Cl)cc1 [sotagliflozin] | > 90 | > 90 |  | 
2 | OC[C@H]1O[C@@H](c2ccc(Cl)c(Cc3ccc(O[C@H]4CCOC4)cc3)c2)[C@H](O)[C@@H](O)[C@@H]1O [empagliflozin] |  |  | 100 | 56
